This is an account of results in patent US20150366966A1, “Stable Aqueous Solution” (SENJU PHARMACEUTICAL CO., LTD., priority 2013, published 2015).

Series [1] is described as follows: Light stability of compound A in aqueous solution (residual ratio by HPLC after white light irradiation). The format is physicochemical. On the procedure:
An aqueous solution of compound A was prepared according to the following formulation. In 0.1% phosphate buffer was added a predetermined amount of tyloxapol, octoxynol, polysorbate 80, HCO-60 or MYS-40, and the mixture was adjusted to […] with sodium hydroxide. Compound A in the predetermined amount in the following formulation was dissolved in said solution, and the mixture was sterilized by filtration with a 0.22 μm membrane filter, and filled in a 5 mL colorless glass ampoule. Using a photostability testing device (model: LT-120A-WCD, manufactured by Nagano Science Co., Ltd.), the ampoule was exposed to white light (total illumination 12000 lux·h and 24000 lux·h), and the content of compound A in the glass ampoule was measured.
Compound A after storage was quantified by high performance liquid chromatography using the absolute calibration curve method (the Japanese Pharmacopoeia). […]
An aqueous solution of compound A was prepared according to the following formulation. […] The glass ampoule was placed, under light irradiation conditions and storage conditions at 80° C. for 1 week, and the content of each compound A was measured. Compound A was quantified in the same manner as in Experimental Example 1 and Experimental Example 2.

The nature of series [2]: Solubility of compound A in water. The format is physicochemical. On the procedure:
This has already been shown by the fact that the heat stability of compound A in an aqueous solution decreases extremely when polysorbate 80 conventionally widely used as a solubilizer of poorly soluble drugs is added (see below-mentioned Experimental Example 2, Comparative Example 1).

The target of the next series is T1, PPARδ (Homo sapiens, UniProt Q03181).
T1 sequence (Q03181 1-441): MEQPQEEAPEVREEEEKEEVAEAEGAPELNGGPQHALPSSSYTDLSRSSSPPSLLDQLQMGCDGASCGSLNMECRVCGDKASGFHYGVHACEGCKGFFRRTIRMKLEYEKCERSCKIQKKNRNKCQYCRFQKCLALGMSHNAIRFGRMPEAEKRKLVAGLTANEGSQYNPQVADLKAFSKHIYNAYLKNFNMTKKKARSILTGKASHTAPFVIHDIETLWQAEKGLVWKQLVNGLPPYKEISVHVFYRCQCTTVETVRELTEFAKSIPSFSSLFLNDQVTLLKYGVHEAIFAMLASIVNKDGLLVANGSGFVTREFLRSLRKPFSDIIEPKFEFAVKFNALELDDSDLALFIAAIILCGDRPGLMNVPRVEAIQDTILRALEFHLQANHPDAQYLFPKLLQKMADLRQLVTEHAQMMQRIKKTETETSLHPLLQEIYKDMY
The note with it: reported in WO 03/033493 and WO 2008/143254; cited from earlier work.

Take `Cc1cc2c(CCc3sc(-c4ccc(C(F)(F)F)cc4)nc3C(C)C)noc2cc1OCC(=O)O` [Compound A, (3-{2-[4-isopropyl-2-(4-trifluoromethyl)phenyl-5-thiazolyl]ethyl}-5-methyl-1,2-benzisoxazol-6-yl)oxyacetic acid]: in series [1], the “stability to light in aqueous solution (in words)” value is “extremely unstable to light in an aqueous solution”. Besides, the “solubility in water (in words)” value in series [2] is on record as “practically insoluble in water”. Moreover, the “PPARδ agonist action (in words)” value on PPARδ was “PPARδ agonist”.
